Test results taken from patent US20240122179A1, “AUXINIC HERBICIDES AND METHODS OF USE THEREOF” (CORTEVA AGRISCIENCE LLC, priority 2021, published 2024).
Like-named read-outs stand apart in the source and are kept apart here.

Columns and labels:
Experiment in all cases: Postemergence herbicide evaluation, percent reduction in plant size vs untreated control, 21 days after treatment
[1] = tested on: Kochia scoparia (KCHSC); format: in vivo; conditions: Bassia scoparia, post-emergence, 504 h, KCHSC, postemergence, read-out: Control/Injury; for pest or weed control at 140 g/ha: rate 140 g ae/ha; for pest or weed control at 280 g/ha: rate 280 g ae/ha
Experimental: (§1) Plants were grown in a soil media composed of 90% by volume Promix BX (Premier Tech Horticulture, Quakertown, PA) and 10% Profile Greens Grade (Profile Products LLC, Buffalo Grove, IL). Promix BX contains approximately 83% Sphagnum Peat Moss, 13% Perlite, 5% vermiculite, and proprietary amounts of limestone, starter fertilizer, and wetting agent. Profile Greens Grade is a sand-sized granule formed from calcining illite and montmorillonite clay. Several seeds of each species were planted in 10 cm square pots and top watered twice daily. Plant material was propagated in a warm greenhouse with temperature ranging from 25 to 28° C. and 50 to 60% relative humidity at the Corteva Global Headquarters (Indianapolis, Indiana, USA). Natural light was supplemented with 1000-watt metal halide overhead lamps with an average illumination of 500 μE m^−2 s^−1 photosynthetic active radiation for 16 consecutive hours each day. Plants were top-watered prior to herbicide application and sub-watered after herbicide application.
(§2) Appropriate amounts of test materials were weighed out into glass vials in their technical form to deliver either 140 or 280 g acid equivalent (ae)/ha. The samples were dissolved in 3 ml of Solvent 1. Solvent 1 is 97% acetone and 3% dimethyl sulfoxide and serves as a general-purpose solvent (GPS) for dissolving technical materials. […] The samples were then diluted to their final concentration using 17 ml of solvent 2 for a total of 20 ml of spray solution. Solvent 2 contains 41.58% GPS, 45.53% water, 11.88% isopropyl alcohol, 0.99% crop oil concentrate and 0.02% Trition X-155 surfactant. All percentages are listed on a volume basis. Dicamba diglycolamine was applied as a formulated herbicide, Clarity™ and diluted with solvent 2 to compare all materials in the same spray solution.
(§3) Herbicide applications were made to 3 to 4 replicates of each plant species at the 2 to 8 leaf stage, depending on the species. Treatments were applied with a research track-sprayer (Generation III Research Sprayer manufactured by DeVries Manufacturing in Hollandale, MN, USA) calibrated to deliver a spray volume of 187 L/ha. The track-sprayer was fitted with an 8003E nozzle from Spray Systems Company (North Avenue and Schmale Road, P.O. Box 7900, Wheaton, IL 60187), and used a spray pressure of 276 kPa pressure and a speed of 3.1 km/h. The nozzle height was 46 cm above the plant canopy. The experimental design used for the trials was a randomized complete block with 3 or 4 replications per treatment. After application, plants were placed on carts according to the randomization and returned to the greenhouse. Plants were sub-watered after treatment with Indianapolis city water or fertilized three times a week with a commercial fertilizer solution (Jack's Professional 15-5-15 4 Ca 2 Mg fertilizer (manufactured by JR PETERS INC., 6656 Grant Way, Allentown, PA 18106; www.jrpeters.com). Percent visual control assessments were made on a scale of 0 to 100% (where 0 was no control and 100 was complete plant death) at 7, 14, and 21 days after treatment.
(§4) In conformity with the methods outlined in Example 49, the effect of representative experimental compounds on the growth of Kochia scoparia (KCHSC) was determined at 2 different levels (respectively, 140 and 280 g acid equivalent (ae)/ha) of the experimental actives tested. Plants were treated with one of the compounds, a control plant was not treated. Twenty-one days after treatment, the plants were measured. The data is present as a percent reduction in plant size relative to the untreated control.

[2] = tested on: Conyza canadensis (L.) (ERICA); format: in vivo, Conyza canadensis (L.) (Horseweed); conditions: Erigeron canadensis, post-emergence, 504 h, ERICA, postemergence, read-out: Control/Injury; for pest or weed control at 140 g/ha: rate 140 g ae/ha; for pest or weed control at 280 g/ha: rate 280 g ae/ha
Experimental: as §1, §2, §3
as §4, with “Conyza canadensis (L.), (ERICA), common name, Horseweed,” for “Kochia scoparia (KCHSC)”

[3] = tested on: Amaranthus rudis (AMATA); format: in vivo, Amaranthus rudis (tall water hemp); conditions: Amaranthus tuberculatus, post-emergence, 504 h, AMATA, postemergence, read-out: Control/Injury; for pest or weed control at 140 g/ha: rate 140 g ae/ha; for pest or weed control at 280 g/ha: rate 280 g ae/ha
Experimental: as §1, §2, §3
as §4, with “Amaranthus rudis (AMATA), common name tall water hemp,” for “Kochia scoparia (KCHSC)”

[4] = tested on: Amaranthus palmeri (AMAPA); format: in vivo, Amaranthus palmeri (Palmer amaranth); conditions: post-emergence, 504 h, postemergence, read-out: Control/Injury; for pest or weed control at 140 g/ha: rate 140 g ae/ha; for pest or weed control at 280 g/ha: rate 280 g ae/ha
Experimental: as §1, §2, §3
as §4, with “Amaranthus palmeri (AMAPA), common name, Palmer amaranth,” for “Kochia scoparia (KCHSC)”

[5] = tested on: Ambrosia artemisiifolia (AMBEL); format: in vivo, Ambrosia artemisiifolia (common ragweed); conditions: post-emergence, 504 h, AMBEL, postemergence, read-out: Control/Injury; for pest or weed control at 140 g/ha: rate 140 g ae/ha; for pest or weed control at 280 g/ha: rate 280 g ae/ha
Experimental: as §1, §2, §3
as §4, with “Ambrosia artemisiifolia (AMBEL), (common ragweed),” for “Kochia scoparia (KCHSC)”

[6] = percent reduction vs untreated, 21 days after treatment
[7] = percent reduction vs untreated control, 21 days after treatment
[8] = R-AMAPA, percent reduction vs untreated control, 21 days after treatment

Compound | pest or weed control at 140 g/ha [1, 6] [%] | pest or weed control at 280 g/ha [1, 6] [%] | pest or weed control at 140 g/ha [2, 6] [%] | pest or weed control at 280 g/ha [2, 6] [%] | pest or weed control at 140 g/ha [3] [%] | pest or weed control at 280 g/ha [3] [%] | pest or weed control at 140 g/ha ([4]; AMAPA) [%] | pest or weed control at 280 g/ha ([4]; AMAPA) [%] | pest or weed control at 140 g/ha [5] [%] | pest or weed control at 280 g/ha [5] [%] | pest or weed control at 140 g/ha [1] [%] | pest or weed control at 280 g/ha [1] [%] | pest or weed control at 140 g/ha [2, 7] [%] | pest or weed control at 280 g/ha [2, 7] [%] | pest or weed control at 140 g/ha [4, 8] [%] | pest or weed control at 280 g/ha [4, 8] [%] | pest or weed control at 140 g/ha [2] [%] | pest or weed control at 280 g/ha [2] [%]
COc1c(Cl)ccc(Cl)c1C(=O)n1nc(C)cc1C [Compound A-133] | 0 | 20 | 3 | 3 | 8 | 5 | 10 | 15 | 3 | 8 |  |  |  |  |  |  |  | 
CCN(CC)OC(=O)c1c(Cl)ccc(Cl)c1OC [Compound A-64] |  |  |  |  | 3 | 2 |  |  | 5 | 12 | 0 | 3 | 3 | 10 | 3 | 20 |  | 
COc1c(Cl)ccc(Cl)c1C(=O)O/N=C(\N)CCCC/C(N)=N/OC(=O)c1c(Cl)ccc(Cl)c1OC [Compound A-145] | 94 | 91 | 83 | 78 | 60 | 64 |  |  | 88 | 96 |  |  |  |  | 55 | 65 |  | 
COc1c(Cl)ccc(Cl)c1C(=O)NOC1CCCCO1 (stereo not drawn) [Compound A-100] | 0 | 0 |  |  | 0 | 19 | 0 | 15 | 5 | 20 |  |  |  |  |  |  | 8 | 13
COc1c(Cl)ccc(Cl)c1C(=O)NOc1ccc([N+](=O)[O-])cc1 [Compound A-97] | 73 | 88 |  |  | 55 | 68 | 50 | 65 | 73 | 90 |  |  | 75 | 70 |  |  | 18 | 40
COc1c(Cl)ccc(Cl)c1C(=O)Oc1nccs1 [Compound A-103] | 0 | 3 |  |  | 8 | 18 | 35 | 30 | 28 | 12 |  |  |  |  |  |  | 0 | 3
COc1c(Cl)ccc(Cl)c1C(=O)n1cnc2ccccc21 [Compound A-115] | 8 | 13 |  |  | 15 | 38 | 20 | 38 | 5 | 28 |  |  |  |  |  |  | 3 | 13
COc1c(Cl)ccc(Cl)c1C(=O)NN1CCOCC1 [Compound A-127] | 3 | 5 |  |  | 30 | 35 | 20 | 23 | 30 | 63 |  |  |  |  |  |  | 18 | 13
COc1c(Cl)ccc(Cl)c1C(=O)O/N=C(\N)CC/C(N)=N/OC(=O)c1c(Cl)ccc(Cl)c1OC [Compound A-140] | 95 | 98 | 83 | 83 | 70 | 68 |  |  | 94 | 94 |  |  |  |  | 54 | 59 |  | 
COc1c(Cl)ccc(Cl)c1C(=O)O/N=C/C(C)=O [Compound A-69] |  |  |  |  | 67 | 80 |  |  | 80 | 96 | 91 | 96 | 88 | 91 | 70 | 80 |  | 
